The source of these data is patent US8685941B2, “Drug composition cytotoxic for pancreatic cancer cells” (University of Central Florida Research Foundation, Inc., priority 2008, dated 2014).

For data set [1], the system named is Stat3. In words: Stat3 DNA-binding activity, EMSA of nuclear extracts, Panc-1. The format is cell-based, human. To be noted: for constitutive Stat3 DNA-binding activity: Panc-1, 24 h treatment; for constitutively-active Stat3 DNA-binding activity: first 30 min to 1 h of treatment. As to the method:
(§1) Nuclear Extract Preparation and Gel Shift Assays.
(§2) Nuclear extract preparation and DNA-binding with electrophoretic mobility shift assay (EMSA) were carried out, as previously reported (14, 15). The ^32P-labeled oligonucleotide probes used were hSIE (high affinity sis-inducible element from the c-fos gene, m67 variant), 5′-[…]; (SEQ ID NO:1) that binds Stat1 and Stat3 (Wagner et al., 1990) and the MGFe (mammary gland factor element from the bovine β-casein gene promoter, 5′-[…]; (SEQ ID NO:2) that binds Stat1 and Stat5 (Gouilleux et al., 1995; Seidel et al., 1995).
For orientation: In EMSA bound probe runs differently from free probe, usually more slowly.

A further data set has as its system pErk1/pErk2MAPK and pAkt. In words: Immunoblotting for pErk1/pErk2MAPK and pAkt (control studies). The format is cell-based, human. Particulars: Panc-1 and Colo-357 cells (data not shown). As to the method: (§3) SDS-PAGE/Western Blot Analysis.
(§4) Western blotting analysis was performed as previously described (15, 18). Primary antibodies used were anti-Stat3 (C20) (Santa Cruz, Santa Cruz, Calif.), anti-pY845EGFR (Upstate Biotech, Millipore, Billerica, Mass.), and antibodies against pY705Stat3, Stat3, pY1068EGFR, pY1086EGFR, pY1173EGFR, EGFR, pY416Src, Src, c-Myc, and β-Actin from Cell Signaling (Danvers, Mass.). Inhibitors
A general note: In western blotting, separated proteins are transferred to a membrane and probed.

For data set [2], the system named is Panc-1 and Colo-357 cells. Put plainly: CyQuant cell proliferation/viability assay, statements for both lines. The text has this:
(§5) Cell Proliferation Viability Assay and Annexin V Binding and Flow Cytometry.
(§6) Viable cells were counted by trypan blue exclusion/phase contrast microscopy or assessed by CyQuant cell viability assay, according to manufacturer's (Invitrogen) instructions, or cells were processed for Annexin V binding (BD Biosciences) with flow cytometry for apoptosis.

The test system of data set [3] is Stat3. In words: Stat3 DNA-binding activity, EMSA of nuclear extracts, Colo-357. The data set is classed as cell-based, human. As to the method: as §1, §2
In data set [4] the test system is Panc-1 and Colo-357 cells. In words: Colony survival assay. The data set is classed as cell-based, human. To be noted: 500 cells per dish, treated once for 48 h. As to the method:
Single-cell suspension of Panc-1 and Colo-357 cells were seeded in 6-cm dishes (500 cells per well) and assayed as previously reported (19), treated the next day with inhibitors for 48 h, and allowed to grow until large colonies were visible. Colonies were stained with crystal violet for 4 h and counted under phase-contrast microscope.

A further data set deals with Panc-1 or Colo-357 cells. Put plainly: Viable cell count by trypan blue exclusion/phase-contrast microscopy. The format is cell-based, human.
Source text: as §5, §6

For the next data set, the system named is Colo-357 cells. Put plainly: CyQuant cell proliferation/viability assay, Colo-357. The format is cell-based. Particulars: Homo sapiens.
Source text: as §5, §6

For a further data set, the system named is Panc-1 cells. Put plainly: CyQuant cell proliferation/viability assay, Panc-1. The format is cell-based. Particulars: Homo sapiens.
Source text: as §5, §6

The next data set addresses T1, Src (Homo sapiens, UniProt P12931).
T1 construct: endogenous in cells; host or cells: Panc-1 and Colo-357 human pancreatic cancer cells
In words: Immunoblotting of whole-cell lysates for pY416Src. The format is cell-based. To be noted: immunoblot, 1 h and 24 h treatment or siRNA knockdown. The procedure:
as §3, §4
Small-Interfering RNA (siRNA) Transfection.
siRNA sequences for EGFR and Src were ordered from Dharmacon RNAi Technologies, Thermo Scientific (Lafayette, Colo.).

Setting [5] is: 48-h treatment with each inhibitor alone.
[6] abbreviates: 1 μM ZD, 100 nM Das, or 50 μM S3I-201 alone, 24 h.
The mark [7] stands for this setting: COLO357, inhibitor alone, 48-h treatment, read-out: IC50 against Colo-357 viability.
Where [8] appears, read: PANC-1, inhibitor alone, 48-h treatment, read-out: IC50 against Panc-1 viability.

Structures are written as SMILES. Read-outs that look alike come from different tables or passages of the source.

T1 sequence (P12931 whole entry): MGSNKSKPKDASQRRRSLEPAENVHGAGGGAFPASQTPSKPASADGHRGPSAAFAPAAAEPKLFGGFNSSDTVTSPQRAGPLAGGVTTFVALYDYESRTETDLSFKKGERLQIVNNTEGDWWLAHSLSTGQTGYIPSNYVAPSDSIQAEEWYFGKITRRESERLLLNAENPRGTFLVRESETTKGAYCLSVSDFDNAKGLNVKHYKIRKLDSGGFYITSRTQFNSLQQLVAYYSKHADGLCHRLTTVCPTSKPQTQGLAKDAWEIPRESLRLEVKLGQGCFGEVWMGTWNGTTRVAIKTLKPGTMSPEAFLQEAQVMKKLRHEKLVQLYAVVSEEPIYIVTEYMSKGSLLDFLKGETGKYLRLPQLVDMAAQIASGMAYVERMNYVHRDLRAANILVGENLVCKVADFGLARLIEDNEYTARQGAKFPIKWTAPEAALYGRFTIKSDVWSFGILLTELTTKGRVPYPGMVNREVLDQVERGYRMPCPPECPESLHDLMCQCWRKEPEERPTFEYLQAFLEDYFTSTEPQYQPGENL

As to `N#C/C(=C\c1ccc(O)c(O)c1)C(=O)NCc1ccccc1` [AG490, Tyrphostin AG490], in the data set on Stat3 [1], the “constitutive Stat3 DNA-binding activity” value is “abolished” and the “constitutively-active Stat3 DNA-binding activity” value is listed as “no effect”.
Consider `CC(C)(C)c1cc(/C=C(\C#N)C(N)=S)cc(C(C)(C)C)c1O` [AG879], for which, in the data set on Stat3 [1], the “constitutive Stat3 DNA-binding activity” value was “moderately inhibited” and the “constitutively-active Stat3 DNA-binding activity” value is recorded as “early repression”.
In the case of `Cc1nc(Nc2ncc(C(=O)Nc3c(C)cccc3Cl)s2)cc(N2CCN(CCO)CC2)n1` [Das, Dasatinib], the “pErk1/pErk2MAPK and pAkt levels” value with pErk1/pErk2MAPK and pAkt is “neither of which was significantly affected”. Further, the “viable cell numbers (fluorescent unit, FU)” value (shortened to “viable cell numbers”) in data set [2] (setting [5]) is “decreased viable cell numbers”. Further, the “sensitivity of both cell lines to S3I-201” value in data set [2] (co-treatment with Das or ZD, 48 h) was “increased the sensitivity”. In the data set with Stat3 [3], the “Stat3 DNA-binding activity” value is recorded as “inhibited”. In addition, the colony numbers result in data set [4] was “reduced colony numbers”. Also, the “cell viability (viable cell count)” value with Panc-1 or Colo-357 cells (setting [6]) is reported as “minimally affected”; in the data set on Panc-1 or Colo-357 cells (treatment for 48 to 96 h), “progressively decreased”. Moreover, the IC50 (commonly the midpoint of a concentration-inhibition curve) turned out to be 0.008 µM in the data set with Colo-357 cells (COLO357, read-out: IC50 of Das against Colo-357 viability, concurrent treatment with S3I-201, 48-h treatment); 0.09 µM in the data set with Colo-357 cells (setting [7]); 0.006 µM with Panc-1 cells (PANC-1, read-out: IC50 of Das against Panc-1 viability, concurrent treatment with S3I-201, 48-h treatment); 0.1 µM in the data set on Panc-1 cells (setting [8]). Further, in the data set with Stat3 [1], the “constitutive Stat3 DNA-binding activity” value is recorded as “rebounded”. For the same compound, in the data set with Stat3 [1], the “constitutively-active Stat3 DNA-binding activity” value is “early repression”.
In the case of `C=CC(=O)Nc1cc2c(Nc3cccc(Br)c3)ncnc2cc1OCCCN1CCOCC1` [PD169], the “pY416Src level (Src activity)” value at Src is recorded as “no detectable changes”. Further, in the data set on Stat3 [1], the “constitutive Stat3 DNA-binding activity” value was “rebounded” and the “constitutively-active Stat3 DNA-binding activity” value was “early repression”.
As for `Cc1ccc(S(=O)(=O)OCC(=O)Nc2ccc(C(=O)O)c(O)c2)cc1` [S3I-201], the “viable cell numbers” value in data set [2] is reported as “decreased viable cell numbers”. In addition, the “sensitivity of Panc-1 and Colo-357 cells to ZD and Das” value in [2] (co-treatment with S3I-201, 48 h) is recorded as “increased the sensitivity”. In addition, the colony numbers result in [4] was “reduced colony numbers”. Besides, the entries for the “cell viability (viable cell count)” value with Panc-1 or Colo-357 cells (setting [6]) and in the data set with Panc-1 or Colo-357 cells (treatment for 48 to 96 h) were “minimally affected” and “progressively decreased”, respectively. Further, the IC50 was found to be 20 µM with Colo-357 cells (COLO357, 48 h, read-out: IC50 of S3I-201 on Colo-357 cells); 45 µM in the data set on Colo-357 cells (setting [7]); 15 µM with Panc-1 cells (PANC-1, 48 h, read-out: IC50 of S3I-201 on Panc-1 cells); 40 µM with Panc-1 cells (setting [8]).
Consider `COc1cc2ncnc(Nc3ccc(F)c(Cl)c3)c2cc1OCCCN1CCOCC1` [ZD, Gefitinib], for which the “pErk1/pErk2MAPK and pAkt levels” value in the data set with pErk1/pErk2MAPK and pAkt is given as “neither of which was significantly affected”. Besides, the cell viability result in [2] (1 μM ZD for 48 h) is recorded as “minimal effect”. The “viable cell numbers” value in data set [2] (setting [5]) is “decreased viable cell numbers”. The “Stat3 DNA-binding activity” value in the data set with Stat3 [3] is “inhibited”. In addition, the colony numbers entry in data set [4] was “not EGFR inhibition (by ZD) resulted in reduced colony numbers”. Besides, the “cell viability (viable cell count)” value in the data set on Panc-1 or Colo-357 cells (setting [6]) is “minimally affected”. Further, the “number of viable Panc-1 cells” value in the data set with Panc-1 or Colo-357 cells (ZD, 96 h (Day 4), Panc-1) is on record as “decreased”. The “cell viability (viable cell count)” value in the data set with Panc-1 or Colo-357 cells (treatment for 48 to 96 h) is recorded as “minimal effect”. Besides, in the data set with Stat3 [1], the “constitutive Stat3 DNA-binding activity” value was “rebounded” and the “constitutively-active Stat3 DNA-binding activity” value was “early repression”.
